From patent publication US11104630B2, “Synthesis of mono-chlorinated acetophenone” (SIEGFRIED AG, priority 2017, dated 2021)

Assay: Solubility of the starting material in the solvent
Format: physicochemical
Settings: solvent MTBE, 20° C., until clear solution
Method: Solubility of the Starting Material in the Solvent
To 1 g of HAP is added 5 ml of solvent. The mixture is stirred in a water bath at 20° C. The solvent is further slowly added under stirring until a clear solution appears.
The amount of used solvent is noted.

## CC(=O)c1cccc(O)c1 [HAP, 3-hydroxy-acetophenon]
  Solvent in ml per g HAP: 9 ml per g HAP
